Experimental data as given in patent US9234176B2, “Chemically defined production of cardiomyocytes from pluripotent stem cells” (The Board of Trustees of the Leland Stanford Junior …, priority 2012, dated 2016).

Columns and labels:
hiPSCs = assay: Cardiac differentiation of hiPSCs in CDM3, optimisation of media and small molecules (TNNT2 flow cytometry); assay type: cell-based; details: for cell death / toxicity of GSK3B inhibitors: in CDM3, FIG. 10g; for inducing cardiac differentiation (GSK3B inhibitors): in CDM3, FIG. 10g-h; for timing of Wnt signaling modulation for cardiac differentiation efficiency: CHIR99021 for 2 days followed by Wnt-C59 for 2 days, in CDM3
Description: Cardiac differentiation of hiPSCs. hiPSCs and hESCs (>p20) were split at 1:10 or 1:12 ratios using EDTA as above and grown for 4 days at which time they reached ˜85% confluence. Media was changed to CDM3, consisting of RPMI 1640 (11875, Life Technologies), 495 μg/mL Oryza sativa-derived recombinant human albumin (A0237, Sigma-Aldrich, 75 mg/mL stock solution in dH2O, stored at −20° C.), 213 μg/mL L-ascorbic acid 2-phosphate (Sigma-Aldrich, 64 mg/mL stock solution in dH2O, stored at −20° C.). Media was changed every other day (48 h). For d0-d2, media was supplemented with 6 μM CHIR99021 (LC Laboratories, Woburn, Mass., USA). On d2, media was change to CDM3 supplemented with […] Wnt-C59 (Cellagentech, San Diego, Calif., USA). Media was changed on d4 and every other day for CDM3.
Wnt inhibitors assessed were IWP-2, IWR-1 (Sigma-Aldrich), XAV-939, ICG-001 (Selleck Chemicals), IWP-4 (Stemgent, Cambridge, Mass., USA), and Wnt-C59 (Cellagentech). GSK3B inhibitors assessed were CHIR99021 (LC Laboratories), BIO, TWS119 (Selleck Chemicals), 1-azenkenpaullone, TDZD-8, ARA014418, and 3F8 (all Sigma-Aldrich). Inhibitors used for pathway analysis were PD173074, SB203580, LDN193189, SB431542 (all Selleck Chemicals), SU5402, Dorsomorphin, A83-01 (Tocris, Bristol, UK), ALK5 inhibitor (Stemgent), and ITD-1 (Xcessbio, San Diego, Calif., USA). All small molecules were re-suspended to 10 mM in dimethyl sulfoxide (DMSO).
Flow cytometry. For optimization of cardiac differentiation conditions, cells were cultured in 12-well plates. For analysis of cardiomyocyte differentiation efficacy and subtype specification, expression of TNNT2, MLC2A and MLC2V was analyzed by flow cytometry. At d14-15 of differentiation, the entire well was dissociated with TrypLE Express for 10 min at 37° C. and transferred to flow cytometry tubes (BD Biosciences). Cells were then fixed with 1% PFA for 15 min, permeabilized with 90% methanol for 15 min and stained using 1:200 mouse monoclonal IgG1 TNNT2 (13-11, Thermo Scientific), 1:400 mouse monoclonal IgG2b MLC2A (MYL7, Synaptic Systems) and 1:200 rabbit polyclonal IgG MLC2V (MYL2, ProteinTech) for 45 min at RT. Secondary staining was performed with 1:1000 Alexa Fluor 488 goat anti-mouse IgG1, 1:1000 Alexa Fluor 488 goat anti-rabbit IgG (H+L), 1:1000 Alexa Fluor 647 goat anti-mouse IgG2b and 1:1000 Alexa Fluor 647 goat anti-rabbit IgG (H+L) secondary antibodies for 20 min. […] Cells were analyzed using a FACSAria II (BD Biosciences) with a […] and FACSDiva software. Data were analyzed using FlowJo 8.7 (Tree Star).

hPSC = assay: Directed cardiac differentiation of hPSC in minimal media (Example 1); assay type: cell-based, human; details: for inducing cardiac differentiation (GSK-3β inhibitors, Wnt signaling agonists): BIO 2-5 μM, CHIR-99021 4-10 μM
Description: Directed Cardiac Differentiation Procedure. (volumes provided are for a T25 flask; adjust volumes proportionately for larger vessels) Day 0 (day 4 after passage): Aspirate medium, and replace with 5 mL of minimal media (CDM3, D3, D4, or D11) supplemented with 6 uM of CHIR-99021 (CHIR-99021 can be used at 4-15 μM). Place flasks in a regular ambient O2, 5% CO2 incubator. Day 2: 48 h. Aspirate media and replace with 5 mL of minimal media (CDM3, D3, D4, or D11). Day 3: 72 h. Aspirate media and replace with 5 mL of minimal media (CDM3, D3, D4, or D11) supplemented with 0.5 uM C59 (C59 may be used at 0.5-5 μM). Day 5: Aspirate media and replace with 5 mL of minimal media (CDM3, D3, D4, or D11). From day 5 onwards media should be changed every 2 days with minimal media (CDM3, D3, D4, or D11).
From day 0 to day 2 (d0-d2), minimal media (CDM3, D3, D4, or D11) was supplemented with the Wnt signaling agonist CHIR-99021 (6-10 uM 48 h, d0-d2), which triggers canonical Wnt/β-Catenin signaling that leads to the subsequent up-regulation of BMP4 and activin A. Media is then exchanged to non-supplemented minimal media (CDM3, D3, D4, or D11) for 1 day followed by contact with a Wnt signaling antagonist (e.g., C59: 0.5-5 uM, 48 h, d3-d5) for 2 days. At day 5, 7, and 9 minimal media (CDM3, D3, D4, or D11) is exchanged for fresh media, and contraction begins between d7 and d10. At day 11, media is exchanged to a variant of minimal media (CDM3, D3, D4, or D11) without […] that results in the depletion of non-cardiomyocytes due to a lack of glycogen stores. Media was exchanged on day 13 for fresh media lacking glucose. At day 15, media was exchanged for fresh minimal media (CDM3, D3, D4, or D11) (containing glucose).
The presence of cardiomyocytes was verified in a number of different ways, for example: flow cytometry of cells contacted with an antibody specific for a cardiomyocyte marker (TNNT2); imaging of cells stained with antibodies specific for α-Sarcomeric actin (red) and Troponin T (TNNT2); electrophysiological profiling; and evaluating responsiveness to known cardioactive drugs (e.g., Norepinephrine). Assays performed on multiple different cell lines (including several hESC lines and over 30 hiPSC lines) confirmed that the subject methods are highly consistent and highly efficient, as very little variability was observed among the different cell lines.

hiPSC [1] = assay: Defined matrices: pluripotent growth and cardiac differentiation of hiPSC; assay type: cell-based, human
Excerpt: Determination that Laminin-Based Matrices are Most Suitable for Cardiac Differentiation. […] This lack of long-term adhesion during the differentiation was present irrelevant of vitronectin peptide concentrations and could be resolved by passaging and replating onto new matrix, yet we sought to find a more suitable solution. We assessed culture of hiPSC in E8 medium and subsequent differentiation on other defined matrices: recombinant human (rH) Ecadherin, rH vitronectin, rH laminin-521, truncated rH laminin-511, human fibronectin, or a fibronectin mimetic (FIG. 2a). Chemically defined long-term maintenance of pluripotency in E8 was successful on all surfaces except those based on fibronectin. […] Cells cultured on each of the five successful matrices (>6 passages) were then differentiated in CDM3. Although all matrices produced efficient differentiations (FIG. 2b), the laminin matrices were both successful for maintaining long-term adhesion during chemically defined cardiac differentiation (FIG. 2d), but prohibitively expensive for large-scale application. […]
Growth assays. To assess cell growth, cells were counted using a Countess automated cell counter (Life Technologies). […] Cumulative population doublings was calculated using the formula n=3.32 [log10(N/N0)].
Matrices. […] Matrices were assessed on both 6-well polystyrene tissue culture plates and untreated plates (both from Greiner). […]

hiPSC [2] = assay: Analysis of components of defined media for hiPSC cardiac differentiation (contraction score); assay type: cell-based, human; parameters: 9 components subtracting: cardiac differentiation score / 2 components subtracting: cardiac differentiation score: scale not given here
Excerpt: Development of a Chemically Defined Cardiac Differentiation Platform. We first generated eleven pluripotent hiPSC lines under chemically defined conditions (FIG. 7) on a chemically synthesized vitronectin peptide substrate, with nonenzymatic passaging (FIG. 8). […] To formulate a chemically defined differentiation protocol, we concentrated on the observation that three unrelated media formations are capable of supporting growth factor-based monolayer cardiac differentiation: RPMI+B27-ins, supplemented StemPro-34, and LI-APEL (Table 5). […] Beginning with the 21 components of B27, we subtracted one component at a time and assessed for continued high efficiency differentiation (Table 6a-c) and also assessed components from two other two media (supplemented StemPro-34 and LI-APEL) that yielded benefits (Table 6d-f). We concluded that hiPSC cardiac differentiation was successful in a media consisting of […]: RPMI 1640 basal medium, L-ascorbic acid 2-phosphate (AA 2-P), and BSA (Table 6g).
Other additions to cardiac differentiation media tested were 10.7 μg/mL recombinant human transferrin, […], 1 μg/mL linoleic acid, 1 μg/mL linolenic acid, 2 ng/mL triiodo-l-thyronine, 2 μg/mL L-carnitine, 1 μg/mL D,L-alpha-tocopherol acetate, 100 ng/mL retinol acetate, 1 μg/mL ethanolamine, 20 ng/mL corticosterone, 9 ng/mL progesterone, 47 ng/mL lipoic acid, 100 ng/mL retinol, 1 μg/mL D,L-alpha-tocopherol, 100 ng/mL biotin, 2.5 ug/mL catalase, 2.5 μg/mL glutathione, 2.5 μg/mL superoxide dismutase, 2 μg/mL L-carnitine, 15 μg/mL D(+)-galactose, 16.1 μg/mL putrescine, 450 μM 1-thioglycerol, 55 μM 2-mercaptoethanol, 64 μg/mL L-ascorbic acid 2-phosphate (all from Sigma-Aldrich).

**Q.** Which results are given for O=C1Nc2cc(Br)ccc2/C1=C1/Nc2ccccc2/C1=N\O [BIO, 6-bromo-3-[(3E)-1,3-dihydro-3-(hydroxyimino)-2H-indol-2-ylidene]-1,3-dihydro-(3Z)-2H-indol-2-one]?
**A.** cell death / toxicity of GSK3B inhibitors (hiPSCs): did not cause total cell death; inducing cardiac differentiation (GSK3B inhibitors) (hiPSCs): successful at inducing any suitable cardiac differentiation; inducing cardiac differentiation (GSK-3β inhibitors, Wnt signaling agonists) (hPSC): successful at inducing cardiac differentiation

**Q.** Cc1cc(-c2ccc(CC(=O)Nc3ccc(-c4cccnc4)cc3)cc2)ccn1 [C59] was tested. Which “timing of Wnt signaling modulation for cardiac differentiation efficiency” value (hiPSCs) did it give?
**A.** optimal

**Q.** And the “Wnt signaling antagonist effective for cardiac differentiation” value (hPSC; at a concentration of 5 μM)?
**A.** effective

**Q.** For “recombinant laminin-521: recombinant human laminin-521 matrix”, which “support of pluripotent hiPSC growth and long-term adherence of CMs” value (hiPSC [1]) is on record?
**A.** most successful

**Q.** OCC(O)CS (stereo not drawn) [1-thioglycerol] was tested. Which “effect of addition on differentiation” value (hPSC; addition d0-d2, PVA 0.4%) did it give?
**A.** severely limited rather than enhanced differentiation

**Q.** What about the “9 components with the addition of: cardiac differentiation score” value (hiPSC [2]; d) addition of components from the other media formulae of Table 5) of the same molecule?
**A.** 0

**Q.** For Cc1cnc(-c2cnc(NCCNc3ccc(C#N)cn3)nc2-c2ccc(Cl)cc2Cl)[nH]1 [CHIR-99021, 6-[[2-[[4-(2,4-dichlorophenyl)-5-(5-methyl-1H-imidazol-2-yl)-2-pyrimidinyl]amino]ethyl]amino]-3-pyridinecarbonitrile], which “timing of Wnt signaling modulation for cardiac differentiation efficiency” value (hiPSCs) is on record?
**A.** optimal

**Q.** What about the “cell death / toxicity of GSK3B inhibitors” value (hiPSCs) of the same molecule?
**A.** did not cause total cell death

**Q.** And the “inducing cardiac differentiation (GSK3B inhibitors)” value (hiPSCs)?
**A.** successful at inducing any suitable cardiac differentiation

**Q.** And the “inducing cardiac differentiation (GSK-3β inhibitors, Wnt signaling agonists)” value (hPSC)?
**A.** successful at inducing cardiac differentiation

**Q.** For c1ccc(-c2[nH]ncc2-c2ccnc3ccccc23)nc1 [LY364947], which “further enhancement of differentiation by pathway inhibitors” value (hPSC; small molecule inhibitors at the later stage of differentiation) is on record?
**A.** did not further enhance the differentiation

**Q.** How did the “effect of omitting the component from the differentiation medium” value (hiPSCs; medium without AA 2-P (FIG. 10a)) turn out when O=C1O[C@H]([C@@H](O)CO)C(O)=C1OP(=O)(O)O [AA 2-P, L-ascorbic acid 2-phosphate] was run?
**A.** total cell death

**Q.** What about the “9 components with the addition of: cardiac differentiation score” value (hiPSC [2]; d) component at 10 x concentration) of the same molecule?
**A.** +++ (>75% contraction)

**Q.** What about the “9 components (with 4 at 10x) subtracting: cardiac differentiation score” value (hiPSC [2]; e) third medium with increased concentrations, each component subtracted) of the same molecule?
**A.** 0

**Q.** And the “6 components subtracting: cardiac differentiation score” value (hiPSC [2]; f) fourth 6-component medium, each component subtracted)?
**A.** 0

**Q.** What about the “2 components subtracting: cardiac differentiation score” value (hiPSC [2]; g) final 3-component medium (RPMI 1640, BSA, 10 x L-ascorbic acid 2-phosphate), component subtracted) of the same molecule?
**A.** 0
